Converted amounts (≈) assume the structure as drawn. The source made the active and inactive calls. The calls are words filed in the database; no cut-off is given here.
What was measured:
[1] = molecular target: T1, Enoyl-[acyl-carrier-protein] reductase [NADH] FabI (Escherichia coli K-12, UniProt P0AEK4)
T1 sequence (P0AEK4 whole entry): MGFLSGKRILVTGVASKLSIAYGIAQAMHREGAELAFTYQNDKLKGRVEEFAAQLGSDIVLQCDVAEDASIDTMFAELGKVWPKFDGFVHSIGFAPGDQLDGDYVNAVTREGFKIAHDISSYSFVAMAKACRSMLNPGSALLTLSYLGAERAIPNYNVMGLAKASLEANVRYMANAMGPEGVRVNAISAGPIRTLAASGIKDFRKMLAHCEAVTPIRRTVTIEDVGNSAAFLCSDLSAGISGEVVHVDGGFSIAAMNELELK
Description: Inhibition of Escherichia coli FabI

physchem [2] = conditions: aqueous, pH 4
Description: Aqueous solubility at pH 4.0

physchem [3] = conditions: aqueous, pH 7.4
Description: Aqueous solubility at pH 7.4

Staphylococcus aureus [4] = assay: microbe, parasite or virus in culture; conditions: 29213
Description: Antibacterial activity against Staphylococcus aureus 29213 by microdilution method

Staphylococcus aureus [5] = assay: microbe, parasite or virus in culture; conditions: 43300
Description: Antibacterial activity against methicillin-resistant Staphylococcus aureus 43300 by microdilution method

Staphylococcus aureus [6] = assay: microbe, parasite or virus in culture; conditions: 934335
Description: Antibacterial activity against triclosan-resistant Staphylococcus aureus 934335 by microdilution method

Escherichia coli = assay: microbe, parasite or virus in culture
Description: Antibacterial activity against Escherichia coli efflux pump mutant by microdilution method

Staphylococcus aureus [7] = assay: Antibacterial activity against Staphylococcus aureus 29213 infected neutropenic mouse thigh model assessed as change in CFU at 100 mg/kg, po after 24 hrs; format: functional, organism-based; set-up: dose 100 mg/kg

## Cc1c(CN(C)C(=O)/C=C/c2cnc3c(c2)CNCCN3)oc2ccccc12
[1]
  IC50: 14 nM
Physchem [2]
  solubility: > 650 µg/mL
Physchem [3]
  solubility: 440 µg/mL (≈ 1170 µM)
Staphylococcus aureus [4]
  MIC: 0.063 µg/mL (≈ 0.167 µM)
Staphylococcus aureus [5]
  MIC: 0.063 µg/mL (≈ 0.167 µM)
Staphylococcus aureus [6]
  MIC: 4 µg/mL (≈ 10.6 µM)
Escherichia coli
  MIC: ≤ 0.063 µg/mL

## Cc1c(CN(C)C(=O)/C=C/c2cnc3c(c2)CNCC(=O)N3)oc2ccccc12
[1]
  IC50: 29 nM
Physchem [2]
  solubility: 170 µg/mL (≈ 435 µM)
Physchem [3]
  solubility: 20 µg/mL (≈ 51.2 µM)
Staphylococcus aureus [4]
  MIC: ≤ 0.063 µg/mL
Staphylococcus aureus [5]
  MIC: ≤ 0.063 µg/mL
Staphylococcus aureus [6]
  MIC: 0.125 µg/mL (≈ 0.32 µM)
Escherichia coli
  MIC: ≤ 0.063 µg/mL

## Cc1c(CN(C)C(=O)/C=C/c2cnc3c(c2)NCCC(=O)N3)[nH]c2ccccc12
[1]
  IC50: 840 nM
Physchem [2]
  solubility: 39 µg/mL (≈ 100 µM)
Physchem [3]
  solubility: 37 µg/mL (≈ 95 µM)
Staphylococcus aureus [4]
  MIC: 0.031 µg/mL (≈ 0.0796 µM)
Staphylococcus aureus [5]
  MIC: 0.063 µg/mL (≈ 0.162 µM)
Staphylococcus aureus [6]
  MIC: 2 µg/mL (≈ 5.14 µM)
Escherichia coli
  MIC: 4 µg/mL (≈ 10.3 µM)

## Cc1c(CN(C)C(=O)/C=C/c2cnc3c(c2)CCC(=O)N3)sc2ccccc12
[1]
  IC50: 64 nM
Physchem [2]
  solubility: 0.2 µg/mL (≈ 0.511 µM)
Physchem [3]
  solubility: 0.3 µg/mL (≈ 0.766 µM)
Staphylococcus aureus [4]
  MIC: 0.125 µg/mL (≈ 0.319 µM)
Staphylococcus aureus [5]
  MIC: ≤ 0.063 µg/mL
Staphylococcus aureus [6]
  MIC: 4 µg/mL (≈ 10.2 µM)
Escherichia coli
  MIC: 4 µg/mL (≈ 10.2 µM)

## CN(Cc1cc2ccccc2n1C)C(=O)/C=C/c1cnc2c(c1)CCC(=O)N2
[1]
  IC50: 150 nM
Physchem [2]
  solubility: 6.2 µg/mL (≈ 16.6 µM)
Physchem [3]
  solubility: 5.6 µg/mL (≈ 15 µM)
Staphylococcus aureus [4]
  MIC: ≤ 0.016 µg/mL
Staphylococcus aureus [5]
  MIC: 0.031 µg/mL (≈ 0.0828 µM)
Staphylococcus aureus [6]
  MIC: 0.5 µg/mL (≈ 1.34 µM)
Escherichia coli
  MIC: ≤ 0.063 µg/mL

## CN1CC(=O)Nc2ncc(/C=C/C(=O)N(C)Cc3cc4ccccc4n3C)cc2C1
Physchem [2]
  solubility: 73 µg/mL (≈ 181 µM)
Physchem [3]
  solubility: 9.7 µg/mL (≈ 24 µM)
Staphylococcus aureus [4]
  MIC: 4 µg/mL (≈ 9.91 µM)
Staphylococcus aureus [5]
  MIC: 0.5 µg/mL (≈ 1.24 µM)
Staphylococcus aureus [6]
  MIC: 8 µg/mL (≈ 19.8 µM)
Escherichia coli
  MIC: > 32 µg/mL

## Cc1c(CN(C)C(=O)/C=C/c2cnc3c(c2)CNCCCN3)oc2ccccc12
[1]
  IC50: 16 nM
Physchem [2]
  solubility: 1400 µg/mL (≈ 3590 µM)
Physchem [3]
  solubility: 210 µg/mL (≈ 538 µM)
Staphylococcus aureus [4]
  MIC: 0.25 µg/mL (≈ 0.64 µM)
Staphylococcus aureus [5]
  MIC: 0.5 µg/mL (≈ 1.28 µM)
Staphylococcus aureus [6]
  MIC: 8 µg/mL (≈ 20.5 µM)
Escherichia coli
  MIC: 8 µg/mL (≈ 20.5 µM)

## Cc1c(CN(C)C(=O)/C=C/c2cnc3c(c2)NCCC(=O)N3)sc2ccc(F)cc12
[1]
  IC50: 25 nM
Physchem [2]
  solubility: 31 µg/mL (≈ 73 µM)
Physchem [3]
  solubility: 38 µg/mL (≈ 89.5 µM)
Staphylococcus aureus [4]
  MIC: ≤ 0.016 µg/mL
Staphylococcus aureus [5]
  MIC: ≤ 0.016 µg/mL
Staphylococcus aureus [6]
  MIC: 0.125 µg/mL (≈ 0.294 µM)
Escherichia coli
  MIC: 1 µg/mL (≈ 2.36 µM)

## Cc1c(CN(C)C(=O)/C=C/c2cnc3c(c2)NCCC(=O)N3)oc2ccccc12
[1]
  IC50: 25 nM
Physchem [2]
  solubility: 1.5 µg/mL (≈ 3.84 µM)
Physchem [3]
  solubility: 1.7 µg/mL (≈ 4.35 µM)
Staphylococcus aureus [4]
  MIC: ≤ 0.016 µg/mL
Staphylococcus aureus [5]
  MIC: ≤ 0.016 µg/mL
Staphylococcus aureus [6]
  MIC: ≤ 0.016 µg/mL
Escherichia coli
  MIC: ≤ 0.063 µg/mL

## Cc1c(CN(C)C(=O)/C=C/c2cnc3c(c2)CNC(=O)CN3)oc2ccccc12
[1]
  IC50: 39 nM
Staphylococcus aureus [4]
  MIC: ≤ 0.063 µg/mL
Staphylococcus aureus [5]
  MIC: ≤ 0.063 µg/mL
Staphylococcus aureus [6]
  MIC: 4 µg/mL (≈ 10.2 µM)
Escherichia coli
  MIC: ≤ 0.063 µg/mL

## Cc1c(CN(C)C(=O)/C=C/c2cnc3c(c2)NCCCN3)oc2ccccc12
[1]
  IC50: 12 nM
Physchem [2]
  solubility: > 100 µg/mL
Physchem [3]
  solubility: 29 µg/mL (≈ 77 µM)
Staphylococcus aureus [4]
  MIC: ≤ 0.016 µg/mL
Staphylococcus aureus [5]
  MIC: 0.031 µg/mL (≈ 0.0823 µM)
Staphylococcus aureus [6]
  MIC: 0.5 µg/mL (≈ 1.33 µM)
Escherichia coli
  MIC: ≤ 0.063 µg/mL

## CN(Cc1cc2ccccc2n1C)C(=O)/C=C/c1cnc2c(c1)NCCC(=O)N2
[1]
  IC50: 136 nM
Physchem [2]
  solubility: 25 µg/mL (≈ 64.2 µM)
Physchem [3]
  solubility: 33 µg/mL (≈ 84.7 µM)
Staphylococcus aureus [4]
  MIC: 0.25 µg/mL (≈ 0.642 µM)
Staphylococcus aureus [5]
  MIC: 0.125 µg/mL (≈ 0.321 µM)
Staphylococcus aureus [6]
  MIC: 1 µg/mL (≈ 2.57 µM)
Escherichia coli
  MIC: 1 µg/mL (≈ 2.57 µM)

## CN(Cc1cc2ccccc2n1C)C(=O)/C=C/c1cnc2c(c1)CNCC(=O)N2
Staphylococcus aureus [7]
  Activity: Active
[1]
  IC50: 330 nM
Physchem [2]
  solubility: > 100 µg/mL
Physchem [3]
  solubility: 82 µg/mL (≈ 211 µM)
Staphylococcus aureus [4]
  MIC: 0.125 µg/mL (≈ 0.321 µM)
Staphylococcus aureus [5]
  MIC: 0.125 µg/mL (≈ 0.321 µM)
Staphylococcus aureus [6]
  MIC: 1 µg/mL (≈ 2.57 µM)
Escherichia coli
  MIC: 1 µg/mL (≈ 2.57 µM)

## Cc1c(CN(C)C(=O)/C=C/c2cnc3c(c2)CNC(=O)CCN3)oc2ccccc12
[1]
  IC50: 30 nM
Physchem [2]
  solubility: 46 µg/mL (≈ 114 µM)
Physchem [3]
  solubility: 17 µg/mL (≈ 42 µM)
Staphylococcus aureus [4]
  MIC: ≤ 0.016 µg/mL
Staphylococcus aureus [5]
  MIC: 0.031 µg/mL (≈ 0.0766 µM)
Staphylococcus aureus [6]
  MIC: 0.5 µg/mL (≈ 1.24 µM)
Escherichia coli
  MIC: ≤ 0.063 µg/mL

## Cc1c(CN(C)C(=O)/C=C/c2cnc3c(c2)CNCCN3)sc2ccccc12
[1]
  IC50: 9 nM
Physchem [2]
  solubility: 100 µg/mL (≈ 255 µM)
Physchem [3]
  solubility: 33 µg/mL (≈ 84.1 µM)
Staphylococcus aureus [4]
  MIC: ≤ 0.016 µg/mL
Staphylococcus aureus [5]
  MIC: 0.031 µg/mL (≈ 0.079 µM)
Staphylococcus aureus [6]
  MIC: 2 µg/mL (≈ 5.1 µM)
Escherichia coli
  MIC: ≤ 0.063 µg/mL
